The source of these data is PubChem BioAssay (NCI).

Structures are written as SMILES.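 Step 1: Grow cells in 96-well plates. Step 2: Expose to compound for 48 hours at 5 concentrations. Step 3: Interpolate endpoints linearly; if unreached, use highest concentration. The concentration for 50% growth inhibition is given as GI50. At the TGI there is no net growth.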 Some results are limits rather than exact numbers.

Some test systems named below: U251 CNS; RXF 393 renal; NCI/ADR-RES ovarian; KM12 colon; COLO 205 colon; 786-0 renal; A549 NSCLC; LOX IMVI melanoma; SF-268 CNS; NCI-H23 lung.
Assay in all cases: inhibition of tumour cell growth, NCI panel, 48 h

Consider `C[C@]12c3c4cc(NC(=O)C(=O)NCc5ccc(-c6ccccn6)nc5)cc3Oc3cc(NC(=O)C(=O)NCc5ccc(-c6ccccn6)nc5)cc(c31)OC1C=C(NC(=O)C(=O)NCc3ccc(-c5ccccn5)nc3)C=C(O4)C12` (some centres undefined), for which the TGI in the experiment on U251 CNS was more than 100 µM; with RXF 393 renal it was more than 100 µM; with NCI/ADR-RES ovarian, more than 100 µM; in the experiment on KM12 colon it was more than 100 µM; in the experiment with COLO 205 colon, more than 100 µM; with 786-0 renal it was 75.5 µM. Also, the TGI with A549 NSCLC was more than 100 µM; in the experiment on LOX IMVI melanoma, 70.4 µM; in the experiment on SF-268 CNS it was more than 100 µM.
`CCCCCCOc1ccc(/C=N/Nc2cc(C)nc3ccc(Cl)cc23)cc1`: the GI50 in the experiment on U251 CNS was 1.9 µM; with RXF 393 renal, 1.56 µM; with NCI/ADR-RES ovarian it was 1.9 µM; in the experiment on KM12 colon, 1.67 µM; with COLO 205 colon it was 1.58 µM; with NCI-H23 lung it was 1.88 µM. The GI50 is 1.93 µM with A549 NSCLC and 1.26 µM with LOX IMVI melanoma. Also, the TGI in the experiment with U251 CNS amounted to 3.43 µM; in the experiment with RXF 393 renal, 2.97 µM; in the experiment with NCI/ADR-RES ovarian, 3.7 µM; in the experiment with KM12 colon, 3.38 µM; in the experiment with COLO 205 colon it was 3.04 µM; in the experiment with NCI-H23 lung, 3.54 µM. For the same molecule, the TGI came to 3.73 µM in the experiment with A549 NSCLC and 2.57 µM with LOX IMVI melanoma.
`COc1cc(S(=O)(=O)Nc2ccc(-c3csc(N4C(=O)CSC4c4cccc(Oc5ccccc5)c4)n3)cc2)ccc1Cl` (centres undefined): the TGI in the experiment on RXF 393 renal is 52.8 µM; in the experiment with NCI/ADR-RES ovarian it was more than 100 µM; with KM12 colon, more than 100 µM; with COLO 205 colon, more than 100 µM; with 786-0 renal, more than 100 µM; in the experiment with NCI-H23 lung it was more than 100 µM. For the same molecule, the TGI in the experiment on LOX IMVI melanoma and in the experiment on SF-268 CNS was more than 100 µM throughout.
Consider `Oc1ccc(NCn2c(=S)sc3ccccc32)cc1`, for which the TGI in the experiment with U251 CNS, in the experiment with RXF 393 renal, in the experiment on NCI/ADR-RES ovarian, with KM12 colon, in the experiment on COLO 205 colon and in the experiment with NCI-H23 lung was more than 100 µM each time. The TGI in the experiment with A549 NSCLC, in the experiment with LOX IMVI melanoma and in the experiment with SF-268 CNS was more than 100 µM throughout.
With `C=C1c2nc3ccccc3n2C=C(c2ccc(OC)cc2)N1c1ccc(OC)cc1`, the TGI was 28.4 µM in the experiment on U251 CNS; 29.8 µM in the experiment on RXF 393 renal; 31.8 µM in the experiment with NCI/ADR-RES ovarian; 44.9 µM in the experiment on KM12 colon; more than 100 µM in the experiment on COLO 205 colon; more than 100 µM with 786-0 renal. For the same molecule, the TGI in the experiment with NCI-H23 lung was 78.2 µM; in the experiment on A549 NSCLC, more than 100 µM; in the experiment on LOX IMVI melanoma, more than 100 µM.
In the case of `CSC(=O)c1sc(SC)[n+](-c2ccccc2)c1O`, the TGI in the experiment on U251 CNS was 30.1 µM; in the experiment with RXF 393 renal, 28 µM; in the experiment with NCI/ADR-RES ovarian it was more than 100 µM; with COLO 205 colon it was more than 100 µM; with 786-0 renal, 32.7 µM; with NCI-H23 lung, 39.7 µM. Besides, the TGI in the experiment on A549 NSCLC is more than 100 µM; in the experiment with LOX IMVI melanoma, 44.8 µM; in the experiment on SF-268 CNS, 31.2 µM.
As for `O=C1c2cc3c(cc2CC12Cc1ccc4c(c1C2=O)CCC4)CCCC3` (centres undefined), the TGI with U251 CNS, in the experiment with RXF 393 renal, in the experiment on NCI/ADR-RES ovarian, in the experiment on 786-0 renal, in the experiment with NCI-H23 lung and in the experiment with A549 NSCLC was more than 100 µM each time. In addition, the TGI in the experiment on LOX IMVI melanoma and in the experiment with SF-268 CNS was more than 100 µM in each case.
For `COc1cc(OCCN(C)C)c2[nH]c(C(=O)N3CC(CCl)c4ccc(N)cc43)cc2c1` (centres undefined), the TGI in the experiment with U251 CNS was found to be 3.32 µM; in the experiment on RXF 393 renal, 0.033 µM; with NCI/ADR-RES ovarian, 1 µM; with KM12 colon it was 0.126 µM; in the experiment on COLO 205 colon, 0.17 µM; in the experiment on 786-0 renal, 1.47 µM. Also, the TGI is 0.316 µM in the experiment on NCI-H23 lung, more than 34.3 µM with A549 NSCLC and 0.908 µM in the experiment with SF-268 CNS.
Take `CON(C)C(=O)C(C)N(Cc1ccccc1)Cc1ccccc1` (centres undefined): the TGI in the experiment on U251 CNS, with RXF 393 renal, with NCI/ADR-RES ovarian, in the experiment on KM12 colon, in the experiment on 786-0 renal and in the experiment with NCI-H23 lung was more than 100 µM in each case. Also, the TGI in the experiment with A549 NSCLC and in the experiment on SF-268 CNS was more than 100 µM throughout.
For the molecule `CC1=NN(c2nc(N)nc(COc3ccc(N)cc3)n2)C(C)(C)C1`, the TGI in the experiment on U251 CNS, in the experiment on RXF 393 renal, in the experiment on NCI/ADR-RES ovarian, in the experiment on KM12 colon, in the experiment with COLO 205 colon and in the experiment on 786-0 renal was more than 100 µM each time. In addition, the TGI in the experiment with NCI-H23 lung, in the experiment on LOX IMVI melanoma and with SF-268 CNS was more than 100 µM each time.
For the molecule `CC(C)=C[C@H]1C[C@H](C)[C@H]2CC[C@H](C)c3c2c1c(C)c1ncoc31`, the TGI in the experiment on U251 CNS turned out to be 34 µM; in the experiment with RXF 393 renal, 25.7 µM; in the experiment with NCI/ADR-RES ovarian, 32.4 µM; in the experiment on KM12 colon, 34.5 µM; in the experiment with COLO 205 colon it was 33.6 µM; in the experiment with 786-0 renal, 36.1 µM. The values for the TGI in the experiment on A549 NSCLC, with LOX IMVI melanoma and in the experiment on SF-268 CNS were 32.3 µM, 37.7 µM and 46 µM, respectively.
Consider `CCOC(=O)c1csc(NC(=O)CN2CCCC2)n1`, for which the TGI with U251 CNS, in the experiment with RXF 393 renal, with NCI/ADR-RES ovarian, with KM12 colon, with COLO 205 colon and with NCI-H23 lung was more than 100 µM in each case. The TGI with A549 NSCLC, in the experiment with LOX IMVI melanoma and in the experiment with SF-268 CNS was more than 100 µM in each case.
With `O=S(=O)(O)c1cc(N=Nc2c(O)ccc3ccccc23)cc2c(S(=O)(=O)O)cccc12`, the TGI with U251 CNS, in the experiment with RXF 393 renal, with NCI/ADR-RES ovarian, in the experiment with KM12 colon, in the experiment on COLO 205 colon and in the experiment on 786-0 renal was more than 100 µM each time. In addition, the TGI in the experiment on A549 NSCLC and in the experiment on SF-268 CNS was more than 100 µM each time.
In the case of `COC(=O)c1cccc(C)c1C1CN=NC12Cc1cc(C)cc(C)c1C2=O` (centres undefined), the TGI in the experiment on U251 CNS, in the experiment with RXF 393 renal, with NCI/ADR-RES ovarian, with KM12 colon, with 786-0 renal and in the experiment on NCI-H23 lung was more than 100 µM each time. For the same molecule, the TGI in the experiment on A549 NSCLC, with LOX IMVI melanoma and with SF-268 CNS was more than 100 µM each time.
